Patent publication US12458025B2 (priority 2020, dated 2025)
Read-outs that look alike come from different tables or passages of the source.

Assays:
[1] = tested on: Candidatus Liberibacter solanacearum (CLso); type: cell-based; details: re-test, five biological replicates, 72 h; tetracycline 250 ppm
[2] = tested on: Pseudomonas syringae (Gram negative); test: Bacterial culture growth inhibition, cell density (OD: 600); type: cell-based; details: 24 h; for growth inhibition significance vs untreated (asterisks): N=4; for cell density (OD: 600): untreated 1.82
Procedure: These compounds were also tested against other phytobacteria. The respective bacterial cultures were grown in the presence of multiple concentrations of a compound (μM) for 24 h, followed by cell density measurements (OD: 600). […]

[3] = tested on: Agrobacterium tumefaciens (Gram negative); test: as above; type: cell-based; details: for cell density (OD: 600) / growth inhibition significance vs untreated (asterisks): 24 h; for cell density (OD: 600): untreated 1.12; for growth inhibition significance vs untreated (asterisks): N=4
[4] = tested on: Clavibacter michiganensis (Gram positive); test: as above; type: cell-based; details: for cell density (OD: 600): untreated 1.61
[5] = tested on: Candidatus Liberibacter solanacearum (CLso); type: in vivo, potato (Solanum tuberosum L. var. Atlantic); details: foliar spray 10 and 25 μM twice a week, 28 dpi; for CLso titers by qPCR: vs untreated controls; for disease symptoms (chlorosis, necrosis, leaf curling and wilting): vs untreated plants
[6] = tested on: Candidatus Liberibacter asiaticus (CLas); type: cell-based; details: 25 μM, 72 h; tetracycline 500 ppm
[7] = cited from earlier work
[8] = tested on: bacteria, fungi, and the superbug MRSA; details: agar patch studies; cited from earlier work

SMILES	inhibition of CLso (FIG. 1b) [1]	growth inhibition significance vs untreated (asterisks) ([2]; 5 μM)	cell density (OD: 600) ([2]; 5 μM)	growth inhibition significance vs untreated (asterisks) ([2]; 10 μM)	cell density (OD: 600) ([2]; 10 μM)	cell density (OD: 600) ([2]; 20 μM)	growth inhibition significance vs untreated (asterisks) ([2]; 50 μM)	cell density (OD: 600) ([2]; 50 μM)	cell density (OD: 600) ([3]; 5 μM)	cell density (OD: 600) ([3]; 10 μM)	cell density (OD: 600) ([3]; 20 μM)	cell density (OD: 600) ([3]; 50 μM)	cell density (OD: 600) ([4]; 5 μM, 24 h)	cell density (OD: 600) ([4]; 10 μM, 24 h)	cell density (OD: 600) ([4]; 20 μM, 24 h)	cell density (OD: 600) ([4]; 50 μM, 24 h)	CLso titers by qPCR [5]	disease symptoms (chlorosis, necrosis, leaf curling and wilting) [5]	inhibition of CLas (FIG. 1c) [6]	growth inhibition significance vs untreated (asterisks) ([2]; 20 μM)	also measured
COc1ccc(C2COc3c(ccc(O)c3OC)C2)c(OC)c1O (single isomer, unassigned; (-)) [Duartin (−), (−)-duartin]	inhibited	** (highly effective, **P≤0.001)	1.77	** (highly effective, **P≤0.001)	1.78	1.79	** (highly effective, **P≤0.001)	1.76	1.10	1.11	1.10	1.09	1.66	1.61	1.65	1.62	lowered CLso titers	clearly lower level of disease symptoms	inhibited		
Cl.NCCCCCC(=O)O [Aminocaproic acid hydrochloride, 6-aminohexanoic acid]			1.80		1.81	1.80	* (effective, *P≤0.05)	1.78	1.17	1.16	1.10	1.11	1.64	1.64	1.66	1.59					solubility ([7]; in chloroform): practically insoluble; solubility ([7]; in methanol): sparingly soluble; solubility ([7]; in water, acid, and alkaline solutions): soluble
CN(C)CCOC(c1ccc(Cl)cc1)c1ccccn1.O=C(O)/C=C\C(=O)O (stereo not drawn) [Carbinoxamine maleate]			1.81		1.81	1.81	* (effective, *P≤0.05)	1.77	1.10	1.08	1.14	1.20	1.68	1.63	1.58	1.59					
Cc1cc(O)cc(C)c1Cl [Chloroxylenol, 4-chloro-3,5-dimethylphenol]	inhibited		1.82		1.81	1.76	** (highly effective, **P≤0.001)	1.30	1.12	1.06	0.99	0.92	1.59	1.56	1.52	1.38	lowered CLso titers	clearly lower level of disease symptoms	inhibited	** (highly effective, **P≤0.001)	effective against Agrobacterium tumefaciens [3]: effective; growth inhibition significance vs untreated (asterisks) ([3]; 50 μM): * (effective, *P≤0.05); effective against Clavibacter michiganensis [4]: effective; growth inhibition significance vs untreated (asterisks) ([4]; 50 μM, 24 h, N=4): ** (highly effective, **P≤0.001); time to kill a wide variety of microbes [8]: ≤ 15 s
CCCNC(=O)NS(=O)(=O)c1ccc(Cl)cc1 [Chlorpropamide]		** (highly effective, **P≤0.001)	1.77	* (effective, *P≤0.05)	1.78	1.76	* (effective, *P≤0.05)	1.77	1.14	1.14	1.17	1.16	1.67	1.65	1.63	1.56				** (highly effective, **P≤0.001)	effective against Agrobacterium tumefaciens [3]: effective; effective against Clavibacter michiganensis [4]: effective
CCn1nc(C(=O)O)c(=O)c2cc3c(cc21)OCO3 [Cinoxacin, 1-ethyl-1,4-dihydro-4-oxo-[1,3] dioxolo [4,5-g] cinnoline-3-carboxylic acid]		* (effective, *P≤0.05)	1.77	* (effective, *P≤0.05)	1.76	1.72	** (highly effective, **P≤0.001)	1.76	1.17	1.11	1.13	0.94	1.63	1.64	1.59	1.57				** (highly effective, **P≤0.001)	effective against Agrobacterium tumefaciens [3]: effective; growth inhibition significance vs untreated (asterisks) ([3]; 50 μM): * (effective, *P≤0.05)
CN(C)CCOC(=O)C(c1ccccc1)C1(O)CCCC1.Cl (stereo not drawn) [Cyclopentolate hydrochloride]	inhibited	* (effective, *P≤0.05)	1.78		1.79	1.77	** (highly effective, **P≤0.001)	1.73	1.08	1.11	1.11	1.12	1.64	1.60	1.59	1.62	lowered CLso titers	clearly lower level of disease symptoms	inhibited	* (effective, *P≤0.05)	
